Data on 23 molecules can be found in PubChem BioAssay AID1259408 (Genetic Toxicology Data Bank (GENE-TOX), 2018).

The test system of the series is GENE-TOX genotoxicity assays, various organisms and cells. The experiment in a line: GENE-TOX mutagenicity studies. To be noted: for call: Assay Type: In vivo carcinogenicity studies.
The mark [1] stands for this setting: Species/Cell Type: Salmonella typhimurium (one or more of the five standard strains: TA98, TA100, TA1535, TA1537, and TA1538), Assay Type: Histidine reverse gene mutation, Ames assay, Assay Code: SAL+, Evaluation Type: Evaluation A (Pre-1980).
Setting [2] is: Species/Cell Type: Salmonella typhimurium, Assay Type: Forward and reverse gene mutation, host-mediated assay, Assay Code: HMA+, Evaluation Type: Evaluation A (Pre-1980).
Setting [3] is: Species/Cell Type: Nonhuman, Assay Code: CCG+, Evaluation Type: Evaluation A (Pre-1980).
[4] abbreviates: Species/Cell Type: Human lymphocytes, Assay Type: Sister-chromatid exchange (SCE) in vitro, Assay Code: SCLT, Evaluation Type: Evaluation B (Post-1980).
Setting [5] is: Species/Cell Type: Human, Assay Type: Sister-chromatid exchange (SCE) in vitro, Assay Code: SC1T, Evaluation Type: Evaluation B (Post-1980).
[6] abbreviates: Species/Cell Type: Human lymphocytes, Assay Type: Sister-chromatid exchange (SCE) in vitro, Assay Code: SCL+D, Dose Response: With dose response, Evaluation Type: Evaluation B (Post-1980).
The mark [7] stands for this setting: Species/Cell Type: Human, Assay Type: Sister-chromatid exchange (SCE) in vitro, Assay Code: SC1+D, Dose Response: With dose response, Evaluation Type: Evaluation B (Post-1980).
Where [8] appears, read: Species/Cell Type: Nonhuman, Assay Type: Sister-chromatid exchange (SCE) in vitro, Assay Code: SC2+, Evaluation Type: Evaluation B (Post-1980).
The mark [9] stands for this setting: Species/Cell Type: Mammalian polychromatic erythrocytes, Assay Type: Micronucleus test, chromosome aberrations, Assay Code: MNTT, Evaluation Type: Evaluation B (Post-1980).
Setting [10] is: Species/Cell Type: Salmonella typhimurium (one or more of the five standard strains: TA98, TA100, TA1535, TA1537, and TA1538), Assay Type: Histidine reverse gene mutation, Ames assay, Assay Code: SALT, Evaluation Type: Evaluation A (Pre-1980).

Active and inactive are the calls of the source. How the calls were made is not given here.

Turning to `CC(C)NCC1CCc2cc(CO)c([N+](=O)[O-])cc2N1` (stereo not drawn), the mutagenic call was “inactive; negative” (Species/Cell Type: Rodents, Sex: Male, Assay Type: Dominant lethal test, Assay Code: DLT-, Evaluation Type: Evaluation A (Pre-1980)); “active; positive” under setting [1]; “active; positive” (Species/Cell Type: Salmonella typhimurium, Assay Type: Forward and reverse gene mutation, body fluid assay, Assay Code: BFU+, Evaluation Type: Evaluation A (Pre-1980)); “active; positive” under setting [2].

For the molecule `CCNNCC`, the call under setting [3] was “active; positive”.

Consider `NC1CCSC1=O` (stereo not drawn), for which the mutagenic call is “no conclusion” under setting [4] and “no conclusion” under setting [5].

Regarding `COc1cc(C(=O)CCN2CCCC2)ccc1O`, the mutagenic call (Species/Cell Type: Salmonella typhimurium, Assay Type: Forward and reverse gene mutation, host-mediated assay, Assay Code: HMAT, Evaluation Type: Evaluation A (Pre-1980)) is given as “no conclusion”.

For the molecule `CCN(CCO)CCCNc1c2ccccc2nc2cc3ccccc3cc12`, the mutagenic call (Species/Cell Type: Chinese hamster ovary (CHO) cells, Assay Type: Forward gene mutation at the HPRT locus, Assay Code: CHOT, Evaluation Type: Evaluation B (Post-1980)) is “no conclusion”.

Take `COc1cccc2c1C(=O)c1c(O)c3c(c(O)c1C2=O)C[C@@](O)(C(C)=O)C[C@@H]3O[C@H]1C[C@H](N)[C@H](O)[C@H](C)O1`: the mutagenic call by setting is: (Species/Cell Type: Chinese hamster lung (V79) cells, Assay Type: Forward gene mutation at the HPRT or ouabain locus, Assay Code: V79+, Evaluation Type: Evaluation A (Pre-1980)) “active; positive”; (Species/Cell Type: Chinese hamster ovary (CHO) cells, Assay Type: Forward gene mutation at the HPRT locus, Assay Code: CHO+, Evaluation Type: Evaluation B (Post-1980)) “active; positive”; (Species/Cell Type: Glycine max (soybean), Assay Type: Gene mutation, Assay Code: GLMT, Evaluation Type: Evaluation A (Pre-1980)) “no conclusion”; (Species/Cell Type: Human cell culture, Assay Type: Chromosome aberrations in vitro, Assay Code: CYZ+D, Dose Response: With dose response, Evaluation Type: Evaluation A (Pre-1980)) “active; positive”; (Species/Cell Type: Human lymphocytes or leukocytes, Assay Type: Chromosome aberrations in vitro, Assay Code: CY7+, Evaluation Type: Evaluation A (Pre-1980)) “active; positive”; under setting [6], “active; positive”. For the same molecule, the mutagenic call runs as follows: under setting [7], “active; positive”; (Species/Cell Type: Nonhuman bone marrow, Assay Type: Chromosome aberrations, in vivo, Assay Code: CY#+, Evaluation Type: Evaluation A (Pre-1980)) “active; positive”; (Species/Cell Type: Nonhuman lymphocytes or leukocytes, Assay Type: Chromosome aberrations in vivo, Assay Code: CY%+, Evaluation Type: Evaluation A (Pre-1980)) “active; positive”; under setting [8], “active; positive”; (Species/Cell Type: Nonhuman, Assay Type: Sister-chromatid exchange (SCE) in vivo, Assay Code: SC3+D, Dose Response: With dose response, Evaluation Type: Evaluation B (Post-1980)) “active; positive”; under setting [1], “active; positive”. The mutagenic call (Species/Cell Type: Vicia faba, Assay Type: Chromosome aberrations, Assay Code: VIC+D, Dose Response: With dose response, Evaluation Type: Evaluation A (Pre-1980)) is “active; positive”. Moreover, under setting [3], the call was “active; positive”.

`Cn1ccc(CO)c1`: the mutagenic call reads like this: under setting [6], “active; positive”; under setting [7], “active; positive”.

For `COC([CH2][Hg+])CNC(=O)C1CCC(C)(C(=O)[O-])C1(C)C.O=C([O-])C[S-].[H+].[H+]` (stereo not drawn), for the setting “Species/Cell Type: Mammalian oocytes or early embryo, Assay Type: Chromosome aberrations in vivo, Assay Code: CYO-, Evaluation Type: Evaluation A (Pre-1980)”, the mutagenic call is “inactive; negative”.

For the molecule `COC(=O)COc1ccc(Cl)cc1CSC(=N)N`, where the note is “Species/Cell Type: Saccharomyces cerevisiae, Assay Type: Reverse gene mutation, Assay Code: YERT, Evaluation Type: Evaluation A (Pre-1980)”, the mutagenic call is listed as “no conclusion”.

For the molecule `CNNC`, the mutagenic call is “active; positive” (Species/Cell Type: Escherichia coli polA (W3119 vs P3478), Assay Type: Rec-assay, DNA effects (bacterial DNA repair), Assay Code: RE1+, Evaluation Type: Evaluation A (Pre-1980)); “no conclusion” (Species/Cell Type: Escherichia coli polA (W3119 vs P3478), Assay Type: Rec-assay, DNA effects (bacterial DNA repair), Assay Code: RE1T, Evaluation Type: Evaluation A (Pre-1980)); “active; positive” (Species/Cell Type: Mammalian polychromatic erythrocytes, Assay Type: Micronucleus test, chromosome aberrations, Assay Code: MNT+, Evaluation Type: Evaluation B (Post-1980)); “no conclusion” (Species/Cell Type: Mammalian polychromatic erythrocytes, Assay Type: Micronucleus test, chromosome aberrations, Assay Code: MNTT, Evaluation Type: Evaluation A (Pre-1980)); “no conclusion” under setting [9]; “active; positive” (Species/Cell Type: Nonhuman, Assay Type: Sister-chromatid exchange (SCE) in vitro, Assay Code: SC2+D, Dose Response: With dose response, Evaluation Type: Evaluation B (Post-1980)). For the same molecule, the mutagenic call is “no conclusion” (Species/Cell Type: Saccharomyces cerevisiae, Assay Type: Mitotic recombination or gene conversion, Assay Code: YEHT, Evaluation Type: Evaluation A (Pre-1980)); “inactive; negative” (Species/Cell Type: Salmonella typhimurium (one or more of the five standard strains: TA98, TA100, TA1535, TA1537, and TA1538), Assay Type: Histidine reverse gene mutation, Ames assay, Assay Code: SAL-, Evaluation Type: Evaluation A (Pre-1980)); “inactive; negative” (Species/Cell Type: Salmonella typhimurium, Assay Type: Forward and reverse gene mutation, body fluid assay, Assay Code: BFU-, Evaluation Type: Evaluation A (Pre-1980)); “active; positive” under setting [2]; “no conclusion” (Species/Cell Type: Syrian hamster embryo (SHE) cells, Assay Type: Cell transformation, clonal assay, Assay Code: CTCT, Evaluation Type: Evaluation A (Pre-1980)). Moreover, the call under setting [3] is “active; positive”.

With `CC(=O)Nc1ccc(-c2ccccc2)cc1`, the mutagenic call (Species/Cell Type: Human diploid fibroblasts, Assay Type: Unscheduled DNA synthesis (UDS) in vitro, DNA effects, Assay Code: UDH-, Evaluation Type: Evaluation A (Pre-1980)) was “inactive; negative”.

`Nc1nc(=O)n([C@H]2C[C@H](O)[C@@H](CO)O2)cc1Br`: the mutagenic call by setting is: (Species/Cell Type: Arabidopsis species, Assay Type: Gene mutation, Assay Code: ARM+, Evaluation Type: Evaluation A (Pre-1980)) “active; positive”; (Species/Cell Type: Drosophila melanogaster, Assay Type: Sex-linked recessive lethal gene mutation, Assay Code: SRLT, Evaluation Type: Evaluation A (Pre-1980)) “no conclusion”; under setting [4], “no conclusion”; under setting [5], “no conclusion”; (Species/Cell Type: Syrian hamster embryo (SA7/SHE) cells, Assay Type: Cell transformation, viral enhanced, Assay Code: CT7+, Evaluation Type: Evaluation A (Pre-1980)) “active; positive”.

In the case of `CC(C)(C#N)Nc1nc(Cl)nc(NC2CC2)n1`, the mutagenic call (Species/Cell Type: Zea mays (corn), Assay Type: Gene mutation, Assay Code: ZEM-, Evaluation Type: Evaluation A (Pre-1980)) is “inactive; negative”.

On to `CC(C)Cl`, for which the mutagenic call is, setting by setting: (Species/Cell Type: Saccharomyces cerevisiae, Assay Type: Mitotic recombination or gene conversion, Assay Code: YEH-, Evaluation Type: Evaluation A (Pre-1980)) “inactive; negative”; under setting [1], “active; positive”.

Consider `CCN(C)N=O`, for which, under setting [3], the call was “active; positive”. For the same molecule, the mutagenic call under setting [10] is given as “no conclusion”.

In the case of `O=c1c2ccc3cccc4c(=O)cc(c5ccccc15)-c2c34`, the mutagenic call reads like this: (Species/Cell Type: Chinese hamster lung (V79) cells, Assay Type: Forward gene mutation at the HPRT or ouabain locus, Assay Code: V79-, Evaluation Type: Evaluation A (Pre-1980)) “inactive; negative”; under setting [10], “no conclusion”. The call (Species/Cell Type: Nonhuman, Assay Code: CCGT, Evaluation Type: Evaluation A (Pre-1980)) is recorded as “no conclusion”.

Take `CC(CN(C)C)Nc1c2ccccc2nc2cccc([N+](=O)[O-])c12` (stereo not drawn): the mutagenic call was “active; positive” (Species/Cell Type: Human lymphocytes, Assay Type: Sister-chromatid exchange (SCE) in vitro, Assay Code: SCL+, Evaluation Type: Evaluation B (Post-1980)) and “active; positive” (Species/Cell Type: Human, Assay Type: Sister-chromatid exchange (SCE) in vitro, Assay Code: SC1+, Evaluation Type: Evaluation B (Post-1980)).

For `C=CC(OC(C)=O)c1ccccc1` (stereo not drawn), the mutagenic call under setting [10] is recorded as “no conclusion”.

Consider `C=CC(O)c1ccc(OC)cc1` (stereo not drawn), for which, under setting [10], the mutagenic call is reported as “no conclusion”.

Regarding `NC(=O)N1C2=CC=CCC2=C(CO)c2ccccc21`, the mutagenic call is, setting by setting: under setting [4], “no conclusion”; under setting [5], “no conclusion”.

Regarding `CCCCOc1ccc(CC(=O)NO)cc1`, the mutagenic call was “no conclusion” under setting [4], “no conclusion” under setting [5], “active; positive” under setting [8] and “no conclusion” under setting [10].

As for `CC(=O)OCCCCCCBr`, under setting [9], the mutagenic call is recorded as “no conclusion”.

With `Cc1ccc(O)cc1`, the mutagenic call was “no conclusion” (Species/Cell Type: Allium cepa, Assay Type: Chromosome aberrations, Assay Code: ALCT, Evaluation Type: Evaluation A (Pre-1980)); “no conclusion” under setting [4]; “inactive; negative” (Species/Cell Type: Human, Assay Type: Sister-chromatid exchange (SCE) in vitro, Assay Code: SC1-, Evaluation Type: Evaluation B (Post-1980)); “no conclusion” (Species/Cell Type: Nonhuman, Assay Type: Sister-chromatid exchange (SCE) in vivo, Assay Code: SC3T, Evaluation Type: Evaluation B (Post-1980)).
